Source: publication PMC8231113, “Protein Secondary Structure Affects Glycan Clustering in Native Mass Spectrometry” (Life, 2021)

Key:
[1] = target: T1, L-lactic dehydrogenase from rabbit muscle (LDH) (Oryctolagus cuniculus, UniProt P13491); test: Native MS glycan clustering to reference protein LDH; assay type: binding; settings: on LDH
T1 construct: L-lactic dehydrogenase from rabbit muscle (LDH, CAS number 9001-60-9); purchased Sigma-Aldrich (Merck, Germany); host or cells: rabbit muscle
Method: (§1) Prior to MS analysis, purified P dimers were buffer exchanged to 150 mM ammonium acetate (Sigma-Aldrich, reagent grade ≥98%) at pH 7 via centrifugal filter units at 12,000× g at 4 °C (Vivaspin 500, MWCO 10000, Sartorius). Glycans for native MS analysis were mixed with 1 µM (per monomer) purified GII.4 Saga P dimer and 3 µM of the reference proteins at indicated concentrations. Native mass spectra were measured at room temperature in positive ion mode on a high mass modified LCT Premier mass spectrometer (Waters/Micromass, UK and MS Vision, the Netherlands) with a nano-ESI source. In house-made gold-coated electrospray capillaries were used for direct-sample infusion without any accessory chromatographic separation. The voltages and pressures were optimized for non-covalent protein complexes. The gas pressure used in the source hexapole was set between 6.5 and 6.8 × 10^−2 mbar argon optimized for minimal complex dissociation and the backing pressure of the source roughing pump was set between 7.0 and 8.5 mbar. Spectra were recorded with applied voltages for the capillary and cone of 1.20 kV and 240 V, respectively. Note that charge state distributions for P dimers were sometimes slightly shifted as was the degree of glycan clustering per charge state. These changes were highly variable and not quantifiable.
(§2) For calibration of the raw data, a 25 mg/mL cesium iodide spectrum from the same day was used. MassLynx V4.1 (Waters, Manchester, UK) was used to assign peak series to protein species and to determine the mass after minimal smoothing. Furthermore, OriginPro 2016 SR2 (OriginLab, Northampton, MA, USA) was used for spectral deconvolution and curve fitting. Correction for nonspecific protein-ligand clustering was performed as described. Corrected peak areas were averaged and normalized to the free-protein signal. Data were based on at least three independent measurements. Python code Panda and Numpy package were used to calculate the specific binding of P dimers according to the glycan clustering ratio obtained from the selected reference protein candidates. Seaborn and matplotlib.pyplot package were imported into a python script to plot the results. The module of sklearn.linear model was applied for linear regression. The matplotlib and heatmap package were used to plot the heatmap.
(§3) Theoretically, the KD is calculated by measuring the concentration of the three components (Pfree, Lfree, PL) in solution. Usually, these values are only indirectly accessible because they require ligand titration up to binding saturation. However, native MS allows for the directly measurement of Pfree and PL, from which Lfree can be calculated using the input concentrations. In the present work, the non-covalent interaction was measured in the gas phase assuming identical ESI and detection efficiency for free and glycan-associated proteins, both for the analyte and the reference protein. […] For P dimers, the equations reflect glycan binding to the individual monomers assuming that binding sites on each monomer are equal and independent.
(§4) Using R described in Equation (3), the KD calculation can be re-written into Equation (4) with the known initial concentration of glycan ligand [L0] and protein [P0], adapted from Sun et al.:(3) R=PLequil∕Pequil=∑nA(PL^n+)∕n∕∑nA(P^n+)∕n (4) KD =L0−RP0/1+R/R
(§5) For the carbohydrate-binding experiments, it was essential to keep the initial protein concentrations and pH value constant during the analysis of the protein-carbohydrate solutions. While acidification occurs in any ESI droplet, the remaining solution in the capillary changes pH over time. Therefore, accumulated spectra were obtained within 10 min after the voltages were applied to minimize the influence of pH changes during the measurements. […]

[2] = target: T2, carbonic anhydrase isozyme II from bovine erythrocytes (CA) (Bos taurus, UniProt P00921); test: Native MS glycan clustering to reference protein CA; assay type: binding; settings: on CA
T2 construct: carbonic anhydrase isozyme II from bovine erythrocytes (CA, CAS number 9001-03-0); purchased Sigma-Aldrich (Merck, Germany); host or cells: bovine erythrocytes
T2 sequence (P00921 whole entry): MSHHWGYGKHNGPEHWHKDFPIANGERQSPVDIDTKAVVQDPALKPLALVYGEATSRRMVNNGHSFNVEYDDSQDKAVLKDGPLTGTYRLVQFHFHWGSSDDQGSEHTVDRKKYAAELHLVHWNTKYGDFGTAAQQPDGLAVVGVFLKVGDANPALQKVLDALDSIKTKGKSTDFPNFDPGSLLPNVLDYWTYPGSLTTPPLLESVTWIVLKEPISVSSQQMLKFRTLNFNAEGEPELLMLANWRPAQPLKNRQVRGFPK
Method: as §1, §2, §3, §4, §5

[3] = target: T3, myoglobin from equine heart (Myo) (Equus caballus, UniProt P68082); test: Native MS glycan clustering to reference protein Myo; assay type: binding; settings: on Myo
T3 construct: myoglobin from equine heart (Myo, CAS number 100684-32-0); purchased Sigma-Aldrich (Merck, Germany); host or cells: equine heart
T3 sequence (P68082 whole entry): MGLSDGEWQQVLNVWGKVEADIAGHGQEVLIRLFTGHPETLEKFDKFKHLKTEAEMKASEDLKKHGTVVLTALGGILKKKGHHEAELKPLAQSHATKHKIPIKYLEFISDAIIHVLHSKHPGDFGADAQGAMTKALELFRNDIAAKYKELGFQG
Method: as §1, §2, §3, §4, §5

[4] = target: GII.4 Saga P dimer (Norovirus GII.4 (human norovirus), UniProt B5BTR7); test: Native MS, specific glycan binding to P dimer after reference protein correction; set-up: species or system human norovirus (hNoV)
Method: as §1, §2
Data from native ESI MS measurements were translated into dissociation constants (KD values). The detailed calculations were based on the equations listed below. A protein (P) and a glycan ligand (L) form a complex through non-covalent interactions leading to a reversible association described by (Equation (1)):(1) P+L⇌PL when equilibrium is reached, the KD can be calculated directly from the concentrations via the law of mass action (Equation (2)):(2) KD=[Pfree][Lfree]/[PL]
as §3
Using R described in Equation (3), the KD calculation can be re-written into Equation (4) with the known initial concentration of glycan ligand [L0] and protein [P0], adapted from Sun et al.:(3) R=PLequil∕Pequil=∑nA(PL^n+)∕n∕∑nA(P^n+)∕n (4) KD =L0−RP0/1+R/R […]

`CC(=O)N[C@H]1[C@H](O[C@H]2[C@@H](O)[C@@H](CO)O[C@H](O[C@@H]3[C@H](O)[C@@H](O)[C@H](O[C@H]4[C@H](O)[C@@H](O)C(O)O[C@@H]4CO)O[C@@H]3CO)[C@@H]2O)O[C@H](CO)[C@H](O)[C@@H]1O` (stereo partly drawn) [Gb4, GalNAc β1-3 Galα1-4Galβ1-4Glc] was tested, and the “Glycan-Clustering Ratio R” value ([1]; 100 µM glycan) was 0.35±0.04, the “Glycan-Clustering Ratio R” value ([1]; 200 µM glycan) was 0.51±0.08 and the “Glycan-Clustering Ratio R” value ([1]; 300 µM glycan) was 0.68±0.02. The “Glycan-Clustering Ratio R” value ([1]; 400 µM glycan) was 0.80±0.01, the “Glycan-Clustering Ratio R” value ([1]; 500 µM glycan) was 0.91±0.06 and the “Glycan-Clustering Ratio R” value ([2]; 100 µM glycan) was 0.21±0.01. For the same compound, the “Glycan-Clustering Ratio R” value ([2]; 200 µM glycan) was 0.32±0.07, the “Glycan-Clustering Ratio R” value ([2]; 300 µM glycan) was 0.50±0.00 and the “Glycan-Clustering Ratio R” value ([2]; 400 µM glycan) was 0.60±0.05. For the same compound, the “Glycan-Clustering Ratio R” value ([2]; 500 µM glycan) was 0.75 ± 0.03, the “Glycan-Clustering Ratio R” value ([3]; 100 µM glycan) was 0.14±0.02 and the “Glycan-Clustering Ratio R” value ([3]; 200 µM glycan) was 0.17±0.03. The “Glycan-Clustering Ratio R” value ([3]; 300 µM glycan) was 0.20±0.03, the “Glycan-Clustering Ratio R” value ([3]; 400 µM glycan) was 0.30±0.01 and the “Glycan-Clustering Ratio R” value ([3]; 500 µM glycan) was 0.37 ± 0.06. For the same compound, the “specific binding after ADH based protein clustering correction” value ([4]; Gb4: any listed glycan concentration, HBGA B: 500 µM) was “no specific binding”, the “Bound number of carbohydrates on Saga P dimer” value (“Bound number … on Saga P dimer” below) ([4]; ref. protein ADH, glycan 100 µM) was 0 and the “Bound number … on Saga P dimer” value ([4]; ref. protein ADH, glycan 200 µM) was 0. For the same compound, the “Bound number … on Saga P dimer” value ([4]; ref. protein ADH, glycan 300 µM) was 0, the “Bound number … on Saga P dimer” value ([4]; ref. protein ADH, glycan 400 µM) was 0 and the “Bound number … on Saga P dimer” value ([4]; ref. protein ADH, glycan 500 µM) was 0. For the same compound, the “Bound number … on Saga P dimer” value ([4]; ref. protein CA, glycan 100 µM) was 1, the “Bound number … on Saga P dimer” value ([4]; ref. protein CA, glycan 200 µM) was 1 and the “Bound number … on Saga P dimer” value ([4]; ref. protein CA, glycan 300 µM) was 2. The “Bound number … on Saga P dimer” value ([4]; ref. protein CA, glycan 400 µM) was 2, the “Bound number … on Saga P dimer” value ([4]; ref. protein CA, glycan 500 µM) was 2 and the “Bound number … on Saga P dimer” value ([4]; ref. protein Cyto c, glycan 100 µM) was 1. The “Bound number … on Saga P dimer” value ([4]; ref. protein Cyto c, glycan 200 µM) was 2, the “Bound number … on Saga P dimer” value ([4]; ref. protein Cyto c, glycan 300 µM) was 3 and the “Bound number … on Saga P dimer” value ([4]; ref. protein Cyto c, glycan 400 µM) was 3. The “Bound number … on Saga P dimer” value ([4]; ref. protein Cyto c, glycan 500 µM) was 4, the “Bound number … on Saga P dimer” value ([4]; ref. protein GFP, glycan 100 µM) was 2 and the “Bound number … on Saga P dimer” value ([4]; ref. protein GFP, glycan 200 µM) was 2. For the same compound, the “Bound number … on Saga P dimer” value ([4]; ref. protein GFP, glycan 300 µM) was 2, the “Bound number … on Saga P dimer” value ([4]; ref. protein GFP, glycan 400 µM) was 2 and the “Bound number … on Saga P dimer” value ([4]; ref. protein GFP, glycan 500 µM) was 2. The “Bound number … on Saga P dimer” value ([4]; ref. protein LDH, glycan 100 µM) was 0, the “Bound number … on Saga P dimer” value ([4]; ref. protein LDH, glycan 200 µM) was 0 and the “Bound number … on Saga P dimer” value ([4]; ref. protein LDH, glycan 300 µM) was 0. For the same compound, the “Bound number … on Saga P dimer” value ([4]; ref. protein LDH, glycan 400 µM) was 0, the “Bound number … on Saga P dimer” value ([4]; ref. protein LDH, glycan 500 µM) was 1 and the “Bound number … on Saga P dimer” value ([4]; ref. protein Myo, glycan 100 µM) was 2. For the same compound, the “Bound number … on Saga P dimer” value ([4]; ref. protein Myo, glycan 200 µM) was 3, the “Bound number … on Saga P dimer” value ([4]; ref. protein Myo, glycan 300 µM) was 3 and the “Bound number … on Saga P dimer” value ([4]; ref. protein Myo, glycan 400 µM) was 3. For the same compound, the “Bound number … on Saga P dimer” value ([4]; ref. protein Myo, glycan 500 µM) was 4, the “Bound number … on Saga P dimer” value ([4]; ref. protein Ubq, glycan 100 µM) was 2 and the “Bound number … on Saga P dimer” value ([4]; ref. protein Ubq, glycan 200 µM) was 3. The “Bound number … on Saga P dimer” value ([4]; ref. protein Ubq, glycan 300 µM) was 4, the “Bound number … on Saga P dimer” value ([4]; ref. protein Ubq, glycan 400 µM) was 4 and the “Bound number … on Saga P dimer” value ([4]; ref. protein Ubq, glycan 500 µM) was 4. The “Bound number … on Saga P dimer” value ([4]; ref. protein apo-TFF, glycan 100 µM) was 0, the “Bound number … on Saga P dimer” value ([4]; ref. protein apo-TFF, glycan 200 µM) was 0 and the “Bound number … on Saga P dimer” value ([4]; ref. protein apo-TFF, glycan 300 µM) was 1. For the same compound, the “Bound number … on Saga P dimer” value ([4]; ref. protein apo-TFF, glycan 400 µM) was 1 and the “Bound number … on Saga P dimer” value ([4]; ref. protein apo-TFF, glycan 500 µM) was 1.
